{"source": "ChEMBL document CHEMBL4665908", "about": "“Estrogen Receptor Degrading PROTACS for the Treatment of Breast Cancer” (ACS Med Chem Lett, 2020)"}
{"biological_target": "T1, Estrogen receptor (Homo sapiens, UniProt P03372)", "T1 sequence (P03372 whole entry)": "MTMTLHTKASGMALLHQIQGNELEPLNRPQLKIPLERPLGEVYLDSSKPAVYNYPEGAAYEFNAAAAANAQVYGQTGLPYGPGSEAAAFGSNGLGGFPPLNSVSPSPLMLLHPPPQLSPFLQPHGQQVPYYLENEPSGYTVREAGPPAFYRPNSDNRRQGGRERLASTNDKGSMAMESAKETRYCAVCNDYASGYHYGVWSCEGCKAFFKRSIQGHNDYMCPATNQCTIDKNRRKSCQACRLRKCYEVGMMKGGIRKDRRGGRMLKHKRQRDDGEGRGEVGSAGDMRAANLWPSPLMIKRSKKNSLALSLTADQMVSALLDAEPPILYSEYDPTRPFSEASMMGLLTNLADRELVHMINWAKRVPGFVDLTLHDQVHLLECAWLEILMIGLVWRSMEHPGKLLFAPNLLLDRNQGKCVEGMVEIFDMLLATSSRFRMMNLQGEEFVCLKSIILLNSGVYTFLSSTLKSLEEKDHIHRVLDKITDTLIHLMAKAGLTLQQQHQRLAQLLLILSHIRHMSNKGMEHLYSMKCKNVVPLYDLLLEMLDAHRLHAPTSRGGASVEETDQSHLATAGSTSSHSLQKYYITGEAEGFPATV", "experiment": "Displacement of fluorescent ligand from human recombinant GST-tagged ER-alpha ligand binding domain (307 to 554 residues) incubated for 15 mins by TR-FRET based competitive assay", "units": {"IC50": "nM"}}
{"smiles": "C[C@@H]1Cc2c([nH]c3ccccc23)[C@@H](c2cnc(N3CCC4(CC3)CC(CN3CC5(CCN(c6ccc7c(c6)CN(C6CCC(=O)NC6=O)C7=O)CC5)C3)C4)nc2)N1CC(C)(C)F", "note": "(stereo partly drawn)", "IC50": 1.9}
{"biological_target": "Protein cereblon/Estrogen receptor (Homo sapiens, UniProt P03372+Q96SW2)", "sequence (Q96SW2 whole entry, one chain of several)": "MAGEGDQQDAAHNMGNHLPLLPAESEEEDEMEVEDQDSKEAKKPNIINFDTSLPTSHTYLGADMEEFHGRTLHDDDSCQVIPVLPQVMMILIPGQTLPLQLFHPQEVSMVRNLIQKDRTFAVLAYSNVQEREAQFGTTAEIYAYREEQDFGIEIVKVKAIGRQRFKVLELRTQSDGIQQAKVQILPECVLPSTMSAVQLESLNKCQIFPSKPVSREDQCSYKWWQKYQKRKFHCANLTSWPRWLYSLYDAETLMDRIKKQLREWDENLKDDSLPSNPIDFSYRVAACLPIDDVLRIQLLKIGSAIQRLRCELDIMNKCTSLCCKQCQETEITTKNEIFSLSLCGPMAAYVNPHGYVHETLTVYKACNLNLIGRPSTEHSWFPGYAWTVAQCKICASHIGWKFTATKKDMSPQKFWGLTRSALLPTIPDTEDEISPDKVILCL", "experiment": "Protac activity at CRBN/ERalpha in human MCF7 cells assessed as induction of ERalpha protein degradation incubated for 8 to 22 hrs by immunofluorescence assay", "assay_type": "cell-based", "units": {"IC50": "nM"}}
{"smiles": "COc1cc(N2CCN(CCC3CCN(c4ncc([C@@H]5c6[nH]c7ccccc7c6C[C@@H](C)N5CC(C)(C)F)cn4)CC3)CC2)cc2c1C(=O)N(C1CCC(=O)NC1=O)C2", "note": "(stereo partly drawn)", "IC50": 0.4}
{"smiles": "C[C@@H]1Cc2c([nH]c3ccccc23)[C@@H](c2cnc(N3CCC4(CC3)CC(CN3CC5(CCN(c6ccc7c(c6)CN(C6CCC(=O)NC6=O)C7=O)CC5)C3)C4)nc2)N1CC(C)(C)F", "note": "(stereo partly drawn)", "IC50": 0.4}
{"smiles": "C[C@@H]1Cc2c([nH]c3ccccc23)[C@@H](c2cnc(N3CCC(CN4CCN(CC5CCN(c6ccc7c(c6)CN(C6CCC(=O)NC6=O)C7=O)CC5)CC4)CC3)nc2)N1CC(C)(C)F", "note": "(stereo partly drawn)", "IC50": 0.6}
{"smiles": "C[C@@H]1Cc2c([nH]c3ccccc23)[C@@H](c2cnc(N3CCC4(CCN(CCC5CCN(c6ccc7c(c6)CN(C6CCC(=O)NC6=O)C7=O)CC5)CC4)CC3)nc2)N1CC(C)(C)F", "note": "(stereo partly drawn)", "IC50": 0.8}
{"smiles": "C[C@@H]1Cc2c([nH]c3ccccc23)[C@@H](c2cnc(OC3CCC4(CC3)CCN(CC3CCN(c5ccc6c(c5)CN(C5CCC(=O)NC5=O)C6=O)CC3)CC4)nc2)N1CC(C)(C)F", "note": "(stereo partly drawn)", "IC50": 0.4}
{"smiles": "C[C@@H]1Cc2c([nH]c3ccccc23)[C@@H](c2cnc(N3CCC(CCN4CCC5(CC4)CCN(c4ccc6c(c4)CN(C4CCC(=O)NC4=O)C6=O)CC5)CC3)nc2)N1CC(C)(C)F", "note": "(stereo partly drawn)", "IC50": 0.4}
{"smiles": "C[C@@H]1Cc2c([nH]c3ccccc23)[C@@H](c2cnc(N3CCC(CCN4CCN(c5ccc6c(c5)CN(C5CCC(=O)NC5=O)C6=O)CC4)CC3)nc2)N1CC(C)(C)F", "note": "(stereo partly drawn)", "IC50": 0.5}
{"smiles": "C[C@@H]1Cc2c([nH]c3ccccc23)[C@@H](c2cnc(N3CCC(OCCN4CCN(c5ccc6c(c5)CN(C5CCC(=O)NC5=O)C6=O)CC4)CC3)nc2)N1CC(C)(C)F", "note": "(stereo partly drawn)", "IC50": 0.5}
{"smiles": "COc1cc(N2CCN(CC3CCN(c4ncc([C@@H]5c6[nH]c7ccccc7c6C[C@@H](C)N5CC(C)(C)F)cn4)CC3)CC2)cc2c1C(=O)N(C1CCC(=O)NC1=O)C2", "note": "(stereo partly drawn)", "IC50": 0.7}
{"smiles": "C[C@@H]1Cc2c([nH]c3ccccc23)[C@@H](c2c(F)cc(OCCCCCN3CCN(c4ccc5c(c4)CN(C4CCC(=O)NC4=O)C5=O)CC3)cc2F)N1CC(C)(C)F", "note": "(stereo partly drawn)", "IC50": 0.6}
{"smiles": "C[C@@H]1Cc2c([nH]c3ccccc23)[C@@H](c2cnc(N3CCC(CCN4CCOC5(CC4)CCN(c4ccc6c(c4)CN(C4CCC(=O)NC4=O)C6=O)CC5)CC3)nc2)N1CC(C)(C)F", "note": "(stereo partly drawn)", "IC50": 0.5}
{"smiles": "C[C@@H]1Cc2c([nH]c3ccccc23)[C@@H](c2cnc(N3CCC(CN4CCOC5(CC4)CCN(c4ccc6c(c4)CN(C4CCC(=O)NC4=O)C6=O)CC5)CC3)nc2)N1CC(C)(C)F", "note": "(stereo partly drawn)", "IC50": 0.4}
